How the values were obtained:
MIA PaCa-2 [1] = assay: Pancreatic cancer xenograft animal model, extracellular matrix and apoptosis; assay type: in vivo, mice; details: RdB/IL-12/RLX 2×10^6 pfu, gemcitabine 1.5 mg/kg
Procedure: In order to construct a pancreatic cancer xenograft animal model, 5×10^5 of MIA PaCa-2 were injected subcutaneously into mice, and then when the size of tumors reached 50 to 100 mm^3, a change in extracellular matrix and an apoptosis effect were observed while 2×10^6 pfu of RdB/IL-12/RLX were administered alone or administered in combination with 1.5 mg/kg of gemcitabine. During the co-administration, RdB/IL-12/RLX was intratumorally administered three times in total at an interval of 2 days, and gemcitabine was intraperitoneally administered once. Thereafter, immunohistological staining and hematoxylin-eosin (H & E) staining were performed, and in order to confirm the degree of apoptosis, a TUNEL assay and cleaved caspase 3 immunostaining were performed. Meanwhile, a PBS only administration group was used as a negative control.

MIA PaCa-2 [2] = assay: MTT assay, RdB/IL-12/DCN with gemcitabine; assay type: cell-based, human; details: gemcitabine alone at 100 μg/ml
Procedure: (§1) For this purpose, human pancreatic cancer cell lines PANC-1, MIA PaCa-2, and AsPC-1 were infected with RdB/IL-12/DCN of the present invention at a MOI of 0.5 or 2, and treated together with gemcitabine (0.05, 0.2, 1, 2, 5, 20, or 100 μg/ml), and then the degree of apoptosis was observed through MTT assay.

PANC-1 [3] = assay: MTT assay, RdB/IL-12/DCN with gemcitabine; assay type: cell-based, human; details: gemcitabine alone at 100 μg/ml
Procedure: as §1

AsPC-1 = assay: MTT assay, RdB/IL-12/DCN with gemcitabine; assay type: cell-based, human; details: gemcitabine alone at 100 μg/ml
Procedure: as §1

MIA PaCa-2-Fluc [4] = assay: Orthotopic pancreatic cancer animal model, change in size of tumor (IVIS); assay type: in vivo, mouse; details: IVIS imaging; combination: week 1 and 2; RdB/IL-12/DCN 2×10^10 VP i.p. three times, gemcitabine 100 mg/kg twice weekly for 3 weeks
Procedure: In order to construct an orthotopic pancreatic cancer animal model, a human pancreatic cancer cell line MIA PaCa-2-Fluc was selected and used in the experiment. Tumor cells were injected into the mouse pancreas, and two weeks later, the production of tumors was confirmed through an IVIS imaging machine. Thereafter, RdB/IL-12/DCN was intraperitoneally administered three times at 2×10^10 VP/500 μL every two days, and gemcitabine was administered twice weekly at 100 mg/kg for a total of 3 weeks. Meanwhile, a PBS only administration group was used as a negative control. Before RdB/IL-12/DCN was administered, the size and photon values of tumors were confirmed using the IVIS imaging machine, and at week 1, 2, and 3 after the administration, the changes in size of tumors were quantitatively compared.

MIA PaCa-2 [5] = assay: Pancreatic cancer subcutaneous animal model; assay type: in vivo, mice; details: MIA PaCa-2 subcutaneous; RdB/IL-12/RLX intratumoral, gemcitabine 10 mg/kg
Procedure: (§2) It was intended to verify the anti-tumor effect by the co-administration of RdB/IL-12/RLX and gemcitabine in a pancreatic cancer subcutaneous animal model. The formation of tumors was induced by injecting PANC-1, MIA PaCa-2, or BxPC-3 cells subcutaneously into mice, a change in size of tumors was observed while RdB/IL-12/RLX was administered alone or RdB/IL-12/RLX was administered (administered intratumorally) in combination with gemcitabine (10 mg/kg). Meanwhile, a PBS only administration group was used as a negative control.

PANC-1 [6] = assay: Pancreatic cancer subcutaneous animal model; assay type: in vivo, mice; details: PANC-1 subcutaneous; RdB/IL-12/RLX intratumoral, gemcitabine 10 mg/kg
Procedure: as §2

BxPC-3 = assay: Pancreatic cancer subcutaneous animal model; assay type: in vivo, mice; details: BxPC-3 subcutaneous; RdB/IL-12/RLX intratumoral, gemcitabine 10 mg/kg
Procedure: as §2

MIA PaCa-2-Fluc [7] = assay: Histological evaluation of orthotopic pancreatic tumors (H&E, PCNA, TUNEL, E1A); assay type: in vivo, mouse; details: orthotopic MIA PaCa-2-Fluc tumor tissue
Procedure: It was intended to histologically evaluate the anti-tumor effect of the aforementioned experiments. First, the formation of tumors was induced by injecting a human pancreatic cancer cell line MIA PaCa-2-Fluc into the mouse pancreas, and then PBS, gemcitabine, RdB/IL-12/DCN, or gemcitabine+RdB/IL-12/DCN was each administered thereto. Thereafter, hematoxylin-eosin (H & E) staining and PCNA immunohistological staining were performed after collecting the tumor tissues. Further, a TUNEL assay was performed in order to confirm the degree of apoptosis of tumor cells, and immunohistological staining using an antibody against an E1A protein of the adenovirus was performed in order to confirm whether the anti-tumor effect was caused by the replication of the adenovirus present in tumor tissues.

B16-F10 = assay: Animal model with induced resistance to anticancer agent (taxol), RdB/IL-12/DCN; assay type: in vivo, C57BL/6 mice; details: day 16 (15 days after first taxol administration); taxol 10 mg/kg i.p., RdB/IL-12/DCN 5×10^5 VP, αPD-1 200 μg
Procedure: Under the conditions where the anti-tumor effect caused by an anticancer agent is insignificant due to the resistance to the anticancer agent, and the like, it was intended to verify an in vivo anti-tumor effect by the co-administration of RdB/IL-12/DCN and the immune checkpoint inhibitor (an anti PD-1 antibody; αPD-1). After a B16-F10 mouse melanoma cell line was injected (5×10^5 cells) subcutaneously into the flank of C57BL/6 mice, taxol (day 1, 2, and 3; 10 mg/kg) was injected intraperitoneally into the formed tumor (day 1, about 50 mm^3), and after RdB/IL-12/DCN was administered alone (day 3, 5, 7, and 9; 5×10^5 VP), αPD-1 was administered alone (day 4, 7, 8, and 10; 200 μg), or RdB/IL-12/DCN and αPD-1 were co-administered (under the same conditions, respectively), the growth of tumors was observed. Meanwhile, a PBS only administration group was used as a negative control.

Nc1ccn([C@@H]2O[C@H](CO)[C@@H](O)C2(F)F)c(=O)n1 [gemcitabine]
necrosis or apoptosis of cells in tumors (H & E, TUNEL, cleaved caspase 3) (MIA PaCa-2 [1]): almost hardly proceeded or was insignificant | ability to kill the pancreatic cancer cell lines (MTT assay) (MIA PaCa-2 [2]): at most 30% | ability to kill the pancreatic cancer cell lines (MTT assay) (PANC-1 [3]): at most 30% | ability to kill the pancreatic cancer cell lines (MTT assay) (AsPC-1): at most 30% | change in size of tumors (MIA PaCa-2-Fluc [4]): sharp increases in size of tumors | change in size of tumors (MIA PaCa-2 [5]): sharp increase in size of tumors | change in size of tumors (PANC-1 [6]): sharp increase in size of tumors | change in size of tumors (BxPC-3): sharp increase in size of tumors | necrosis of cells in tumors (H & E staining) (MIA PaCa-2-Fluc [7]): hardly observed

CC(=O)O[C@H]1C(=O)[C@@]2(C)[C@H]([C@H](OC(=O)c3ccccc3)[C@]3(O)C[C@H](OC(=O)[C@H](O)[C@@H](NC(=O)c4ccccc4)c4ccccc4)C(C)=C1C3(C)C)[C@]1(OC(C)=O)CO[C@@H]1C[C@@H]2O [taxol]
size of tumors (B16-F10): 5394.5±288.2 mm^3

— patent US20250082702A1, “ANTICANCER COMPOSITION COMPRISING RECOMBINANT ADENOVIRUS EXPRESSING DEGRADATION FACTOR FOR EXTRACELLULAR MATRIX” (priority 2016, published 2025)
